Data as given in patent US10344330B2, “Glatiramer acetate response biomarker mRNA potency assay” (Mylan Inc., priority 2013, dated 2019).
Several values for one entry are separate records, joined by “and”; a condition that tells them apart may be missing. Equal values may be shown once. Read-outs that look alike come from different tables or passages of the source.

B1: MBP: myelin basic protein, a negative control (protein, UniProt P02686 1-304, looked up)
Myelin basic protein: MGNHAGKRELNAEKASTNSETNRGESEKKRNLGELSRTTSEDNEVFGEADANQNNGTSSQDTAVTDSKRTADPKNAWQDAHPADPGSRPHLIRLFSRDAPGREDNTFKDRPSESDELQTIQEDSAATSESLDVMASQKRPSQRHGSKYLATASTMDHARHGFLPRHRDTGILDSIGRFFGGDRGAPKRGSGKDSHHPARTAHYGSLPQKSHGRTQDENPVVHFFKNIVTPRTPPPSQGKGRGLSLSRFSWGAEGQRPGFGYGGRASDYKSAHKGFKGVDAQGTLSKIFKLGGRDSRSGSPMARR

Columns and labels:
[1] = tested on: mIL-10 mRNA in primary LN cells; test: mIL-10 mRNA by real-time PCR in stimulated LN cells of immunized (SJL/J×BALB/C)F1 mice (Example I); assay type: cell-based, mouse
Description: Animals were immunized on Day 0.
Each mouse received a total injection volume of […] (250 μg GA). Animals were immunized on Day 0. […] Lymph nodes from immunized mice were removed and isolated.
Expression of cytokine mRNA was quantitatively analyzed 4 and 6 hours after using a Real-Time PCR system (7500, Applied Biosystems).

[2] = tested on: mouse IL-13 mRNA in primary LN cells; test: Validation: mouse IL-13 mRNA by real-time PCR in LN cells of GA-immunized SJL/J mice (Example IV); assay type: cell-based; settings: for IL-13 mRNA Fold Change: normalized to GAPDH; for induction of IL-13 mRNA: 20 μg/mL, 6 hours
Description: Three experiments were conducted using one batch of GA (Mylan GMA). The primary LN cells were stimulated by incubation with 6 concentrations (0.3 to 20 μg/mL) of the GA for 6 hours at 37° C. Total RNA was isolated from LN cells stimulated with GA or controls. cDNA was synthesized from the RNA and the mRNA levels of seven mouse cytokines, IL-2, IL-4, IL-5, IL-10, IL-13, interferon (IFN)-γ and tumor necrosis factor (TNF)-α, were quantitatively measured by a real-time PCR method.
Female SJL/J mice at 8-9 weeks of age were immunized by injection into four footpads using a 1 mL syringe with a 27-G, ½-inch needle. Each mouse received a total injection volume of 0.1 mL of GMA emulsified in CFA (about 10 μL into each of the front footpads and 40 μL into each of the hind footpads). Animals were immunized on Day 0. After injection, animals were placed back in their cages and housed ≤6 animals per cage.
Immunized animals were sacrificed by cervical dislocation on Day 10 following immunization. […] After centrifugation at about 200×g for 10 minutes at 4° C., the cell pellet was re-suspended in 40 mL of DCCM-1 medium for cell counting. A Trypan blue exclusion method was used to determine the cell density of viable cells in the suspension. After cell counting, the LN cells were suspended in enriched DCCM-1 medium at density of 7.5×10^6 cells/mL. LN cells (0.12 mL) were plated into each well of 96-well tissue culture plates.
Dilutions of GA (Mylan GMA) were prepared using enriched DCCM-1 medium as the diluent. GA dilutions (0.12 mL) were added in the assigned wells of 96-well tissue culture plates. The same volume of LN cells (0.12 mL) isolated from immunized animals was added to the assigned wells. A positive control and a negative control were always performed in the same assay by treating LN cells with 2.5 μg/mL ConA and 10 μg/mL MBP, respectively. The LN cells with mock stimulation protocols (enriched DCCM-1 medium) were used to monitor the background mRNA level of a cytokine. The plates were incubated at 37° C. in a humidified 5% CO2 incubator for 6 hr.
At the end of incubation time, culture medium from stimulated cells was removed by aspiration and the cells were lysed using Qiagen or Promega lysis buffer. The lysate was transferred to an RNeasy Mini column (Qiagen) or wells of the SV 96 Binding Plate (Promega) for RNA isolation and cDNA synthesis. All tested samples were run in triplicate.
The SV 96 Total RNA Isolation System (Promega; Cat. No. Z3505) was used for total RNA isolation. Assay procedures were carried out according to each manufacturer's protocol. RNA samples were stored at −70° C. until use. […] The assay procedure was carried out according to the manufacturer's protocol.
The plate was centrifuged at 2000 rpm for 2 minutes at 4° C. to spin down the contents and eliminate air bubbles. Samples were prepared and run in a 96-well plate using a Life Technologies Real-Time PCR system (previously Applied Biosystems; Model No. 7500) according to the manufacturer's recommendation. The mix for the reference gene was prepared in the same way using the reference gene primer.
A relative quantitation method was used to analyze changes in mIL-2, mIL-4, mIL-5, mIL-10, mIL-13, mIFN-γ and TNF-α expression in GA treated samples relative to the untreated control (Enriched DCCM-1 treated) samples using the following program:
Levels of mouse cytokine amplicons were normalized to an internal probe level (GAPDH) from the same samples. The following equations were used to calculate the relative increase in response to GA stimulation compared to the control sample (Enriched DCCM1 sample): […]

[3] = tested on: KC (CXCL1) secreted by LN cells; test: KC (CXCL1) secretion by GA-stimulated LN cells, MSD 9-plex ELISA (Example II); assay type: cell-based, mouse; settings: for KC secretion response ratio (treated cell medium to control DCCM1 medium): 21 hr
[4] = Group 1B (GA + CFA), 4 hours post-stimulation, GA 10, MBP 10, ConA 2.5 μg/mL, reference GAPDH
[5] = Group 1B (GA + CFA), 6 hours post-stimulation, GA 10, MBP 10, ConA 2.5 μg/mL, reference GAPDH
[6] = Group 2B (Mannitol + CFA), 4 hours post-stimulation, GA 10, MBP 10, ConA 2.5 μg/mL, reference GAPDH
[7] = Group 2B (Mannitol + CFA), 6 hours post-stimulation, GA 10, MBP 10, ConA 2.5 μg/mL, reference GAPDH
[8] = BALB/cByJ, immunized GA Lower Limb
[9] = C57BL10J, immunized GA Intraplantar
[10] = C57BL10J, immunized GA Lower Limb

Molecule	mIL-10 mRNA [1, 4] [fold change vs control]	mIL-10 mRNA [1, 5] [fold change vs control]	mIL-10 mRNA [1, 6] [fold change vs control]	mIL-10 mRNA [1, 7] [fold change vs control]	KC secretion response ratio (treated cell medium to control DCCM1 medium) [3, 8]	KC secretion response ratio (treated cell medium to control DCCM1 medium) [3, 9]	KC secretion response ratio (treated cell medium to control DCCM1 medium) [3, 10]	KC secretion response ratio (treated cell medium to control DCCM1 medium) ([3]; CD-1, immunized GA Lower Limb)	other results
Concanavalin A [ConA, reference compound]	2.3	1.2	1.6	3.1	0.90	1.55	1.28	1.65	IL-13 mRNA Fold Change ([2]; Experiment 1, 2.5 μg/mL): 40.9 fold; IL-13 mRNA Fold Change ([2]; Experiment 2, 2.5 μg/mL): 32.4 fold; IL-13 mRNA Fold Change ([2]; Experiment 3, 2.5 μg/mL): 50.9 fold
L-glutamic acid polymer with L-alanine, L-lysine and L-tyrosine, acetate (salt) [GA]									mIL-10 mRNA [1]: 1.7 fold change vs control and 1.4 fold change vs control and 1.2 fold change vs control and 0.9 fold change vs control; induction of IL-13 mRNA ([2]; SJL/J, Exp 1): 17.6 fold; induction of IL-13 mRNA ([2]; SJL/J, Exp 2): 21.3 fold; induction of IL-13 mRNA ([2]; SJL/J, Exp 3): 33.9 fold; induction of IL-13 mRNA (in words) ([2]; SJL/J, different concentrations of GA vs unstimulated LN cells): robust induction; KC secretion, dose response to GA (in words) ([3]; cells from any of the three mouse strains): No dose response
B1	1.0	0.6	1.0	0.5	1.02	1.00	1.04	1.08	IL-13 mRNA Fold Change ([2]; Experiment 1, 10 μg/mL): 0.9 fold; IL-13 mRNA Fold Change ([2]; Experiment 2, 10 μg/mL): 1.4 fold; IL-13 mRNA Fold Change ([2]; Experiment 3, 10 μg/mL): 1.2 fold; IL-13 mRNA expression level in response to MBP treatment ([2]; SJL/J, MBP 10 μg/mL, all PCR runs): ≤ 2 fold
